According to US20190166841A1, “Method for Controlling PPO Resistant Weeds” (BASF SE, priority 2016, published 2019):

What was measured:
Assay type in all cases: in vivo
[1] = test system: Amaranthus tamariscinus (Common waterhemp, AMATA), Sensitive biotype (w.1); test: Greenhouse herbicidal activity test, sensitive waterhemp w.1; conditions: use rate 4 g/ha, scale 0 to 100 (100 = complete destruction, 0 = no damage)
From the text: (§1) The culture containers used were plastic flowerpots containing loamy sand with approximately 3.0% of humus as the substrate. The seeds of the test plants were sown separately for each species and/or resistant biotype. For the pre-emergence treatment, the active ingredients, which had been suspended or emulsified in water, were applied directly after sowing by means of finely distributing nozzles. The containers were irrigated gently to promote germination and growth and subsequently covered with transparent plastic hoods until the plants had rooted. This cover caused uniform germination of the test plants, unless this had been impaired by the active ingredients. For the post-emergence treatment, the test plants were first grown to a height of 3 to 15 cm, depending on the plant habit, and only then treated with the active ingredients which had been suspended or emulsified in water. For this purpose, the test plants were either sown directly and grown in the same containers, or they were first grown separately as seedlings and transplanted into the test containers a few days prior to treatment. Depending on the species, the plants were kept at 10-25° C. or 20-35° C., respectively. The test period extended over 2 to 4 weeks. During this time, the plants were tended, and their response to the individual treatments was evaluated. The evaluation was carried out by using a scale from 0 to 100. […]

[2] = test system: Amaranthus tamariscinus (Common waterhemp, AMATA), PPO resistant biotype 1 (w.2); test: Greenhouse herbicidal activity test, PPO resistant waterhemp w.2; conditions: use rate 4 g/ha, scale 0 to 100
From the text: as §1

[3] = test system: Amaranthus tamariscinus (Common waterhemp, AMATA), PPO resistant biotype 2 (w.3); test: Greenhouse herbicidal activity test, PPO resistant waterhemp w.3; conditions: use rate 4 g/ha, scale 0 to 100
From the text: as §1

[4] = test system: Amaranthus tamariscinus (Common waterhemp, AMATA), PPO resistant biotype 3 that was shown to contain the ΔG210 mutation (w.4); test: Greenhouse herbicidal activity test, PPO resistant waterhemp w.4; conditions: use rate 4 g/ha; PPO resistant biotype 3 with ΔG210 mutation; scale 0 to 100
From the text: as §1

With `CCS(=O)(=O)Nc1cc(-n2nc(C(F)(F)F)n(C)c2=O)c(F)cc1C(N)=S` [(I).1, bencarbazone] the “Weed control (%) w.1” value [1] was 92%, the “Weed control (%) w.2” value [2] was 100% and the “Weed control (%) w.3” value [3] was 100%. The “Weed control (%) w.4” value [4] was 82%.
